Source: patent US6506784B1, “Use of 1,3-substituted pyrazol-5-yl sulfonates as pesticides” (3-Dimensional Pharmaceuticals, Inc., priority 1999, dated 2003)

Target: Mouse Brain GABA Receptors
Assay: In vitro assay of ability to bind mouse brain GABA receptors (3H-EBOB displacement, mouse brain membranes)
Settings: inhibition of 3H-EBOB binding to mouse brain membranes; NI = non-inhibitor
Experimental: Mouse brains were obtained from carbon dioxide-asphyxiated Swiss-Webster mice, washed with phosphate-buffered saline, and used either fresh or after storage at −80° C. for up to 10 months. Unless specified, all preparation steps were performed at 0-4° C. For each preparation, 20 brains were suspended in about 40 mL of 0.32 M sucrose and homogenized for about 2 minutes, using a Tissumizer™ homogenizer equipped with a SDT-100EN probe (available from Tekmar-Dohrmann, Cincinnati, Ohio) running at 50% of its maximum speed. The extract was centrifuged for about 5 min at about 1000×g to pellet intact brain tissue. The supernatant was retained and the pellet washed with an additional 40 mL of 0.32 M sucrose and centrifuged at 1000×g for about 5 minutes. The 1000×g supernatants were combined and centrifuged at about 10,000×g for about 20 min to pellet membranes. The 10,000×g supernatant was discarded and the pellet was resuspended in about 20 mL of water containing 1 mM EDTA. The sample was dialyzed two times for about 3 hours each against about 3 L of water. The sample was then centrifuged at about 25,000×g for about 30 min to pellet the membranes. After centrifugation, the supernatant was discarded and the pellet recovered. The protein concentration of the pellet was determined by the Bio-Rad Protein Assay (available from Bio-Rad Laboratories, Hercules, Calif.) using bovine serum albumin as a standard. The membranes were aliquoted and stored at −80° C. for up to 6 months before use.
Mouse brain membranes were prepared as described above from dissected mouse brains. Test compounds were dissolved in dimethylsulfoxide (DMSO) at concentrations ranging from about 2 nM to about 100 mM. About 1 μL of a dissolved test compound was dispensed into a well of a 96-well polystyrene plate. About 100 μL of ice cold assay buffer (10 mM phosphate, 300 mM NaCl, pH 7.5) containing 5.2 nM 4′-Ethynyl-4-n-[2,3-^3H2]propylbicycloorthobenzoate (^3H-EBOB, 38 Ci/mmol, available from NEN Life Science Products, Boston, Mass.) was added to the well, followed by about 100 μL of ice cold assay buffer containing about 0.25-0.5 mg/ml mouse brain membranes. Control wells were prepared the same way except that the mouse brain membranes were omitted from the “negative” wells, and the test compounds were omitted from the “positive” wells. The samples were incubated for about 45 min at about 24° C. and then filtered on a 0.1% (w/v) polyethylenimine-soaked glass fiber Filtermat A (available from EG&G Wallac Inc., Gaithersburg, Md.) followed by four 100 mL rinses of cold assay buffer using a Harvester 96® cell harvester (available from Tomtec, Orange, Conn.). The filtermat was air dried and radioactivity bound to the filtermat was detected with either a 1450 MicroBeta® Trilux scintillation counter (available from EG&G Wallac Inc.) or a Topcount NXT™ scintillation counter (available from Packard Instrument Co., Meriden, Conn.) using standard methods.
Specific binding was considered to be the difference between total ^3H bound to the mouse brain membranes in the absence of any inhibitors and nonspecific ^3H bound to the mouse brain membranes upon the addition of 5 μM unlabeled EBOB. The average radioactivity contained in the “negative” wells was subtracted from each of the assay wells. […] This value was calculated by plotting the data on a log-linear plot and either dropping a line to the x-axis perpendicular to a line drawn to the y-axis at approximately 50% inhibition of ^3H-EBOB binding, or by fitting the data to the formula I=XY/(X+Z), in which I is the percent inhibition of ^3H-EBOB binding, X is the inhibitor concentration, Y is the maximum percent inhibition of ^3H-EBOB binding observed, and Z is the calculated IC50.

| Structure (SMILES) | IC50 [µM] |
| --- | --- |
| Cn1nc(C(F)(F)F)cc1OS(=O)(=O)c1cc(Cl)c(Cl)cc1Cl [compound 1] | 8.4 |
| Cn1nc(C(F)(F)F)cc1OS(=O)(=O)c1ccc(C(F)(F)F)cc1Cl [compound 5, 1-methyl-3-(trifluoromethyl)pyrazol-5-yl 2-chloro-4-(trifluoromethyl)benzenesulfonate] | 14 |
| Cn1nc(C(F)(F)F)cc1OS(=O)(=O)c1cccc(F)c1 [compound 8] | 0.16 |
| Cn1nc(C(F)(F)F)cc1OS(=O)(=O)c1c(F)cccc1F [compound 9] | 6 |
| Cn1nc(C(F)(F)F)cc1OS(=O)(=O)c1ccc(F)c(F)c1 [compound 10] | 1 |
| Cc1cc(F)ccc1S(=O)(=O)Oc1cc(C(F)(F)F)nn1C [compound 11] | 3.6 |
| Cn1nc(C(F)(F)F)cc1OS(=O)(=O)c1ccc2ccccc2c1 [compound 13] | 3 |
| Cc1c(Cl)cccc1S(=O)(=O)Oc1cc(C(F)(F)F)nn1C [compound 16] | 12 |
| Cn1nc(C(C)(C)C)cc1OS(=O)(=O)c1ccc(Cl)cc1Cl [compound 17] | 5.4 |
| Cn1nc(C(F)(F)F)cc1OS(=O)(=O)c1ccc(F)cc1Cl [compound 20, 1-methyl-3-(trifluoromethyl)pyrazol-5-yl 2-chloro-4-fluorobenzenesulfonate] | 3.3 |

Further compounds by falling IC50, results first:

| IC50 [µM] | Structure (SMILES) |
| --- | --- |
| 12.5 | Cn1nc(C(F)(F)F)cc1OS(=O)(=O)c1ccc(Br)c(Br)c1 [compound 6] |
| 12 | O=S(=O)(Oc1cc(C(F)(F)F)nn1-c1ccccc1)c1ccc(F)c(Cl)c1 [compound 14] |
| 11 | Cc1cc(S(=O)(=O)Oc2cc(C(F)(F)F)nn2C)ccc1Cl [compound 7] |
| 9 | Cn1nc(C(F)(F)F)cc1OS(=O)(=O)c1ccc(Cl)c(Cl)c1 [compound 2] |
| 4.9 | Cn1nc(C(F)(F)F)cc1OS(=O)(=O)c1ccc(Cl)cc1Cl [compound 12, 1-methyl-3-(trifluoromethyl)pyrazol-5-yl 2,4-dichlorobenzenesulfonate] |
| 2 | Cn1nc(C(F)(F)F)cc1OS(=O)(=O)c1cc(Cl)ccc1Cl [compound 3] |
| 1.3 | Cn1nc(C(C)(C)C)cc1OS(=O)(=O)c1ccc(F)cc1Cl [compound 19] |
| 1 | Cc1nn(-c2ccccc2)c(OS(=O)(=O)c2ccc(F)cc2Cl)c1Cl [compound 18] |
| 0.5 | Cn1nc(C(F)(F)F)cc1OS(=O)(=O)c1cccc(Cl)c1 [compound 4] |
